Results from paper PMC10574475, “Development and Validation of a UHPLC–MS/MS Method for the Quantification of a Novel PYGB Inhibitor in Plasma: Application to Pharmacokinetic Studies” (Molecules, 2023).
“Also recorded” adds a separate entry of the source. Read-outs that look alike come from different tables or passages of the source.

Experiments:
[1] = Plasma pharmacokinetics after intravenous administration (UHPLC–MS/MS); format: in vivo, SD rats; details: rat plasma; for AUC(0-inf) / AUC(0-t) / Cmax / Vd / clearance / half-life: both sexes, SD
Description: 50 μL of the plasma to be tested was aspirated precisely and placed in a 1.5 mL centrifuge tube. Then 5 μL of internal standard working solution and 150 μL of methanol were added sequentially to the centrifuge tube, and the tube was vortexed for 60 s and centrifuged at 6147× g for 10 min. Finally, 100 μL of supernatant was taken and added to the injection vial for quantitative analysis by UHPLC–MS/MS.
(§1) Liquid chromatography conditions. UHPLC–MS/MS analyses were performed on an Agilent 1260 ultra-high performance liquid chromatograph (Agilent Technologies Co., Ltd., Santa Clara, CA, USA) and a QTRAP 5500 triple quadrupole tandem mass spectrometer (AB Sciex Pte. Ltd., Framingham, MA, USA). An ACQUITY UPLC BEH C18 column (2.1 × 50 mm, 1.7 µm) was used at […] with a flow rate of 0.3 mL/min and an injection volume of 2 µL. The analysis time was 5 min using an isocratic elution procedure of methanol and water (4:1, v/v).
In the plasma pharmacokinetic study, 30 healthy SD rats (half male and half female) were selected and randomly divided into 3 groups of 10 rats each. Three groups of SD rats were injected with a single dose of compound 1 (0.8 mg/kg, 1.6 mg/kg, 3.2 mg/kg) by tail vein, respectively. At 0.084, 0.25, 1, 2, 4, 6, 8, 12, 24 h after administration, 0.5 mL of blood was collected from the fundus venosus in heparin-anticoagulated tubes, and the plasma was separated by centrifugation at 6149× g for 10 min, and then placed in 1.5 mL Eppendorf tubes and stored in the refrigerator at −80 °C for measurement.
(§2) The data was processed using Origin 2021 to plot the drug concentration–time curve in plasma, and DAS 2.0 software was used to calculate the pharmacokinetic parameters by the […] statistical moment method, and the results of the experiments were expressed as mean ± standard deviation. Differences between groups were analyzed using SPSS 20.0, with p < 0.05 indicating statistical significance.

[2] = Brain tissue distribution after intravenous administration; format: in vivo, SD rats; details: rat; for brain tissue concentration: after injection
Description: Brain tissue homogenate samples for analysis were prepared by adding 9 volumes of homogenate solution (MeOH/15 mMPBS (1: 2, v/v)) to one volume of brain homogenate and diluting it 10-fold. Firstly, an aliquot of 40 μL of the brain homogenate sample to be tested (diluted sample), calibration standards, QC and diluted QC, a zero sample (with internal standard) and a blank sample (without internal standard) were added to the 96-well plate. Then, each sample (except blank samples) was quenched with 400 μL of IS1 (blank samples were quenched with 400 μL of acetonitrile), and the mixture was vortexed at 800 rpm for 10 min, followed by centrifugation at 3220× g at 4 °C for 15 min. Finally, a 50 μL aliquot of the supernatant was transferred to another clean 96-well plate and centrifuged at 3220× g for 15 min at 4 °C, then injected directly into the sample for UHPLC–MS/MS analysis.
as §1
In the preliminary brain tissue distribution study, 18 healthy male SD rats were injected with 3.2 mg/kg of compound 1 intravenously into the tail, and the animals were euthanized by CO2 inhalation at 0.25, 2 and 8 h after the administration of compound 1, respectively. Blood and brain tissue were then collected separately from each animal. Brain tissue was homogenized on wet ice using homogenizing buffer (MeOH/15 mM PBS = 1/2) at a ratio of 1:9 (1 g tissue to 9 mL buffer). The tissue homogenate was divided into two parts, 0.8 mL was used for analysis and the rest was discarded.
as §2

[3] = Stability of compound 1 in rat plasma under different storage conditions; format: in vitro ADME
Description: Stability was assessed under the four conditions (storage at room temperature for 12 h, […] for 24 h, refrigerator storage at −20 °C for 10 days, and freeze-thawing at −80 °C to 25 °C for 3 cycles) using the QC working solution (2.5, 800 ng/mL), and six preparations were made in parallel for each concentration. The stability of compound 1 in rat plasma was evaluated by calculating the peak area ratio (compound 1/IS) in plasma sample.

PYGB = system: PYGB; parameters: method as in PMID 36234871, PMID 36838691, PMID 36108587; details: previous studies; read-out: IC50 of PYGB inhibition; cited from earlier work
[4] = male, Sprague-Dawley (SD), brain tissue, 3.2 mg/kg iv
[5] = 3.2 mg/kg iv, 0.25 h, 3.2 mg/kg

## CCCC1(CCC)NC(=O)c2cc(NC(=O)c3cc4cc(Cl)ccc4[nH]3)ccc2O1 [compound 1, 5-chloro-N-(4-oxo-2,2-dipropyl-3,4-dihydro-2H-benzo[e][1,3]oxazin-6-yl)-1H-indole-2-carboxamide]
[1]; 0.8 mg/kg iv
  AUC(0-inf): 900 ± 441 ng·h/mL
  AUC(0-t): 895 ± 440 ng·h/mL
  Cmax: 1180 ± 361 ng/mL
  Vd: 6.43 ± 3.48 L/kg
  clearance: 16.7 mL/min/kg
  half-life: 274 ± 130 min
[1]; 1.6 mg/kg iv
  AUC(0-inf): 1610 ± 371 ng·h/mL
  AUC(0-t): 1600 ± 372 ng·h/mL
  Cmax: 2030 ± 289 ng/mL
  Vd: 7.51 ± 6.15 L/kg
  clearance: 17.3 mL/min/kg
  half-life: 288 ± 193 min
[1]; 3.2 mg/kg iv
  AUC(0-inf): 3630 ± 973 ng·h/mL
  AUC(0-t): 3630 ± 970 ng·h/mL
  Cmax: 3710 ± 683 ng/mL
  Vd: 4.14 ± 1.23 L/kg
  clearance: 15.7 mL/min/kg
  half-life: 185 ± 34.8 min
[1]; iv, dose range 0.8–3.2 mg/kg
  linearity of pharmacokinetics: linear pharmacokinetic characteristics; also recorded: linear pharmacokinetic profile
[2]; brain tissue, 3.2 mg/kg iv
  AUC0–∞: 668 ng·h/g
[2]; male, SD, brain, iv, 3.2 mg/kg, 3.2 mg/kg iv, 0.25 h, read-out: CBrain (concentration in brain tissue)
  concentration at 0.25 h: 440 ± 19.1 ng/g
[2]; male, SD, brain, iv, 3.2 mg/kg, 3.2 mg/kg iv, 2 h, read-out: CBrain (concentration in brain tissue)
  concentration at 2 h: 111 ± 23.9 ng/g
[2]; male, SD, brain, iv, 3.2 mg/kg, 3.2 mg/kg iv, 8 h, read-out: CBrain (concentration in brain tissue)
  concentration at 8 h: 4.17 ± 7.22 ng/g
[2]; male, SD, brain/plasma, iv, 3.2 mg/kg, 3.2 mg/kg iv, 0.25 h, read-out: CBrain/CPlasma ratio
  Kp at 0.25 h: 0.112 ± 0.0185
[2]; male, SD, brain/plasma, iv, 3.2 mg/kg, 3.2 mg/kg iv, 2 h, read-out: CBrain/CPlasma ratio
  Kp at 2 h: 0.112 ± 0.0292
[2]; male, SD, brain/plasma, iv, 3.2 mg/kg, 3.2 mg/kg iv, 8 h, read-out: CBrain/CPlasma ratio
  Kp at 8 h: 0.09 ± 0.148
[2]; male, SD, plasma, iv, 3.2 mg/kg, 3.2 mg/kg iv, 0.25 h, read-out: CPlasma (concentration in plasma)
  concentration at 0.25 h: 4020 ± 677 ng/g
[2]; male, SD, plasma, iv, 3.2 mg/kg, 3.2 mg/kg iv, 2 h, read-out: CPlasma (concentration in plasma)
  concentration at 2 h: 1020 ± 275 ng/g
[2]; male, SD, plasma, iv, 3.2 mg/kg, 3.2 mg/kg iv, 8 h, read-out: CPlasma (concentration in plasma)
  concentration at 8 h: 32.9 ± 14.5 ng/g
[2]; male, SD, plasma, 3.2 mg/kg iv
  Cmax: 4890 ng/g
  Tmax: 0 min
  half-life: 68.4 min
[2]; [4]
  Cmax: 440 ng/g
  MRT: 1.65 h
  Tmax: 15 min
  half-life: 70.8 min
[2]; male, Sprague-Dawley (SD), plasma, 3.2 mg/kg iv
  MRT: 1.47 h
[2]; plasma, 3.2 mg/kg iv
  AUC0–∞: 6659 ng·h/g
[2]; [5]
  CBrain (concentration in brain tissue): 440.0 ± 19.1 ng/g
  CBrain/CPlasma ratio: 0.11 ± 0.019
[2]; 3.2 mg/kg iv, 2 h, 3.2 mg/kg
  CBrain (concentration in brain tissue): 111.0 ± 23.9 ng/g
  CBrain/CPlasma ratio: 0.11 ± 0.029
[2]; 3.2 mg/kg iv, 8 h, 3.2 mg/kg
  CBrain (concentration in brain tissue): 4.2 ± 7.2 ng/g
[2]; 0.25 h (abstract)
  brain tissue concentration: 440 ± 19.1 ng/g
[2]; 2 h (abstract)
  brain tissue concentration: 111 ± 23.9 ng/g
[2]; iv
  crossing of the blood–brain barrier: able to cross the blood–brain barrier; also recorded: could quickly cross the blood–brain barrier
[3]; 2.5 ng/mL, auto-sampler (24 h), 4 °C
  Stability, RE: 13.81%
[3]; 2.5 ng/mL, room temperature (12 h)
  Stability, RE: 0.50%
[3]; 2.5 ng/mL, storage at −20 °C (10 days)
  Stability, RE: 12.30%
[3]; 2.5 ng/mL, thaw and freeze (from −80 °C to 25 °C), 3 cycles
  Stability, RE: 12.40%
[3]; 800 ng/mL, auto-sampler (24 h), 4 °C
  Stability, RE: −3.20%
[3]; 800 ng/mL, room temperature (12 h)
  Stability, RE: 1.03%
[3]; 800 ng/mL, storage at −20 °C (10 days)
  Stability, RE: −0.65%
[3]; 800 ng/mL, thaw and freeze (from −80 °C to 25 °C), 3 cycles
  Stability, RE: −3.64%
PYGB
  IC50: 90.3 nM
